Data: PubChem BioAssay (NCI)
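Values below derive from 48-hour exposures of cells grown in 96-well plates, with endpoints linearly interpolated between the two concentrations bracketing the appropriate inhibition level. Abbreviation: GI50, concentration required for 50% inhibition of growth. Definition used: TGI = concentration required for complete inhibition of growth.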

Tests used:
Assay in all cases: DTP human tumour cell line panel, 48 h
[1] = test system: SK-MEL-2 melanoma
[2] = test system: TK-10 renal
[3] = test system: HCT-116 colon
[4] = test system: A549 NSCLC
[5] = test system: NCI-H23 lung
[6] = test system: SK-MEL-28 melanoma
[7] = test system: SR leukemia
[8] = test system: MOLT-4 leukemia
[9] = test system: OVCAR-8 ovarian
[10] = test system: UO-31 renal
[11] = test system: MDA-MB-231 breast
[12] = test system: ACHN renal
[13] = test system: SNB-19 CNS
[14] = test system: NCI/ADR-RES ovarian
[15] = test system: CCRF-CEM leukemia
[16] = test system: RPMI-8226 leukemia
[17] = test system: HS 578T breast
[18] = test system: MALME-3M melanoma
[19] = test system: NCI-H460 lung
[20] = test system: UACC-257 melanoma
[21] = test system: HCT-15 colon
[22] = test system: HOP-92 NSCLC
[23] = test system: SN12C renal
[24] = test system: RXF 393 renal
[25] = test system: HCC-2998 colon
[26] = test system: PC-3 prostate
[27] = test system: CAKI-1 renal
[28] = test system: NCI-H522 lung
[29] = test system: UACC-62 melanoma
[30] = test system: M14 melanoma
[31] = test system: BT-549 breast
[32] = test system: 786-0 renal
[33] = test system: IGROV1 ovarian
[34] = test system: COLO 205 colon
[35] = test system: HT29 colon
[36] = test system: NCI-H226 lung
[37] = test system: HOP-62 NSCLC
[38] = test system: OVCAR-5 ovarian
[39] = test system: K-562 leukemia
[40] = test system: SK-MEL-5 melanoma
[41] = test system: SW-620 colon
[42] = test system: SF-539 CNS
[43] = test system: KM12 colon
[44] = test system: SF-295 CNS
[45] = test system: A498 renal
[46] = test system: MCF7 breast
[47] = test system: EKVX NSCLC
[48] = test system: SNB-75 CNS
[49] = test system: T-47D breast
[50] = test system: MDA-MB-435
[51] = test system: OVCAR-4 ovarian
[52] = test system: U251 CNS
[53] = test system: HL-60(TB) leukemia
[54] = test system: DU-145 prostate
[55] = test system: SF-268 CNS

Work on `COc1ccc2c3c(Nc4ccc(/C(C)=N/O)cc4)[nH]c4ccccc4c-3c(N=O)c2c1` yielded a GI50 [1] of 18.4 µM, a TGI [1] of 40.6 µM and a GI50 [2] of 5.05 µM. It also gave a TGI [2] of 71.7 µM, a GI50 [3] of 1.47 µM and a TGI [3] of 2.89 µM. For the same compound, the GI50 [4] was 1.45 µM, the TGI [4] was 6.08 µM and the GI50 [5] was 4.59 µM. The TGI [5] was 18.2 µM, the GI50 [6] was 27 µM and the TGI [6] was 50.6 µM. It also gave a GI50 [7] of 1.47 µM, a TGI [7] of 4.27 µM and a GI50 [8] of 0.951 µM. It also gave a TGI [8] of 2.84 µM, a GI50 [9] of 3.55 µM and a TGI [9] of 20.2 µM. For the same compound, the GI50 [10] was 18.5 µM, the TGI [10] was 35.5 µM and the GI50 [11] was 4.8 µM. It also gave a TGI [11] of 24.3 µM, a GI50 [12] of 0.568 µM and a TGI [12] of 2.54 µM. For the same compound, the GI50 [13] was 22.9 µM, the TGI [13] was 51.9 µM and the GI50 [14] was 5.78 µM. It also gave a TGI [14] of 20.2 µM, a GI50 [15] of 1.09 µM and a TGI [15] of 2.92 µM. It also gave a GI50 [16] of 2.52 µM, a TGI [16] of 5.14 µM and a GI50 [17] of 7.04 µM. For the same compound, the TGI [17] was 37 µM, the GI50 [18] was 6.31 µM and the TGI [18] was 27.6 µM. For the same compound, the GI50 [19] was 29.5 µM, the TGI [19] was over 100 µM and the GI50 [20] was 3.08 µM. It also gave a TGI [20] of 8.56 µM, a GI50 [21] of 1.81 µM and a TGI [21] of 4.56 µM. It also gave a GI50 [22] of 13.1 µM, a TGI [22] of 36 µM and a GI50 [23] of 7.06 µM. The TGI [23] was 23 µM, the TGI [24] was 0.0372 µM and the GI50 [25] was 1.78 µM. For the same compound, the TGI [25] was 3.27 µM, the GI50 [26] was 1.52 µM and the TGI [26] was 3.2 µM. The GI50 [27] was 2.65 µM, the TGI [27] was 6.01 µM and the GI50 [28] was 18.9 µM. It also gave a TGI [28] of 41.9 µM, a GI50 [29] of 7.91 µM and a TGI [29] of 23.7 µM. It also gave a GI50 [30] of 2.44 µM, a TGI [30] of 5.64 µM and a GI50 [31] of 3.98 µM. For the same compound, the TGI [31] was 23.1 µM, the GI50 [32] was 13.4 µM and the TGI [32] was 28.2 µM. It also gave a GI50 [33] of 15 µM, a TGI [33] of 29.2 µM and a GI50 [34] of 19.5 µM. For the same compound, the TGI [34] was 34.9 µM, the GI50 [35] was 19.6 µM and the TGI [35] was 33.7 µM. It also gave a GI50 [36] of 17 µM, a TGI [36] of 38.3 µM and a GI50 [37] of 11.6 µM. It also gave a TGI [37] of 30.9 µM, a GI50 [38] of 3.02 µM and a TGI [38] of 12.2 µM. It also gave a GI50 [39] of 0.665 µM, a TGI [39] of 2.8 µM and a GI50 [40] of 3.76 µM. For the same compound, the TGI [40] was 14.8 µM, the GI50 [41] was 1.36 µM and the TGI [41] was 2.85 µM. It also gave a GI50 [42] of 17.3 µM, a TGI [42] of 34.6 µM and a GI50 [43] of 1.13 µM. It also gave a TGI [43] of 4.39 µM, a GI50 [44] of 9.11 µM and a TGI [44] of 38.9 µM. For the same compound, the GI50 [45] was 12.9 µM, the TGI [45] was 27.2 µM and the GI50 [46] was 0.843 µM. For the same compound, the TGI [46] was over 100 µM, the GI50 [47] was 3.74 µM and the TGI [47] was 20.4 µM. The GI50 [48] was 44.9 µM, the TGI [48] was 75.3 µM and the GI50 [49] was 24.1 µM. It also gave a TGI [49] of 53.2 µM, a GI50 [50] of 2.77 µM and a TGI [50] of 11.9 µM. It also gave a GI50 [51] of 28.4 µM, a TGI [51] of 68.2 µM and a GI50 [52] of 2.31 µM. For the same compound, the TGI [52] was 12.9 µM, the GI50 [53] was 1.26 µM and the TGI [53] was 3.06 µM. The GI50 [54] was 2.04 µM, the TGI [54] was 4.79 µM and the GI50 [55] was 1.07 µM. The TGI [55] was 34.9 µM.
